Data reported in patent US6689757B1, “Methods for vaccination and vaccines therefor” (M.L. Laboratories PLC, priority 1996, dated 2004).
Entries after “also recorded” stand apart in the source; their conditions may differ. Where two headings read alike, the source gives them in different places.

Legend:
human dendritic cells = format: cell-based
[1] = Photon correlation spectroscopy (PCS) particle size of K6CL22-DNA complexes; format: physicochemical
cells = format: cell-based
COS cells = format: cell-based; conditions: pCMVβ DNA; medium with chloroquine; 5 hours; triplicate; FIG. 7
[2] = Zeta potential analysis of K6CL22-DNA complexes; format: physicochemical; conditions: peptide:DNA ratio 1.4:1; Hepes

| Substance | optimal peptide:DNA ratio for transfection (human dendritic cells; […], FIGS. 16 and 17) | transfection efficiency, CL26-complexed DNA compared to CL22-complexed DNA (human dendritic cells; […], FIGS. 16 and 17) | transfection efficiency, CL26-complexed DNA compared to CL22-complexed DNA (human dendritic cells; peptide/DNA ratio between 1 and 1.8, FIG. 18) | size of large particles/aggregates of complex ([1]; 150 mM NaCl, after one hour at room temperature, DNA 40 μg/ml) | average (Zav) particle size ([1]; K6CL22-DNA complexes) | average ratio at which aggregation occurs ([1]; K6CL22-DNA complexes) | ratio range in which aggregation occurs ([1]; K6CL22-DNA complexes) | effect of coadministered chloroquine on transfection efficiency (cells) | transfection of COS cells (β-galactosidase activity, relative light units per mg of protein) (COS cells) | transfection of dendritic cells (human dendritic cells; complexes of K6Cl22 peptide and pCMVb) | transfection efficiency, CL22-complexed DNA compared to CL26-complexed DNA (human dendritic cells; peptide/DNA ratio between 2 and 2.6, FIG. 18) | peptide/DNA ratio with highest transfection efficiency (human dendritic cells; ratio varied 1.2-2.6, 40 μM chloroquine, […], FIG. 10) | zeta potential of the complex [2] |
| --- | --- | --- | --- | --- | --- | --- | --- | --- | --- | --- | --- | --- | --- |
| H-KKKKKKKKKKKKGGFLGFWRGENGRKTRSAYERMCNILKGK-OH [CL26] | 1.6 mg CL26:1 mg DNA | higher efficiency | higher efficiency |  |  |  |  |  |  |  |  |  |  |
| NH2-KKKKKKGGFLGFWRGENGRKTRSAYERMCNILKGK-COOH (H-KKKKKKGGFLGFWRGENGRKTRSAYERMCNILKGK-OH) [K6CL22] | 1.6-2.2 mg CL22:1 mg DNA |  |  | approx. 100 nm | approximately 100 nm | 1.4 μg peptide/μg DNA | 1.2-1.6 μg peptide/μg DNA | Increased transfection efficiency | have been transfected; also recorded: very efficient transfection | have been transfected | greater | 1.4-2.0 | zero |
